From ChEMBL document CHEMBL1201862, “PubChem BioAssay data set” (2004)
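Cultured in 96-well plates, cells were exposed to test compound for 48 hours across five concentrations. GI50: concentration for 50% inhibition of growth.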 Active and inactive are the calls of the source. No stated cut-off is given here; in the data, active = GI50 up to about 1.1 µM and inactive = higher.

Columns and labels:
Assay in all cases: DTP human tumour cell line panel, 48 h
SK-MEL-2 = test system: SK-MEL-2
SW-620 = test system: SW-620
HOP-62 = test system: HOP-62
RXF 393 = test system: RXF 393
NCI-H23 = test system: NCI-H23
HL-60 = test system: HL-60
M14 = test system: M14
SK-MEL-5 = test system: SK-MEL-5
UO-31 = test system: UO-31
OVCAR-8 = test system: OVCAR-8
SF-539 = test system: SF-539
UACC-257 = test system: UACC-257
SNB-75 = test system: SNB-75
OVCAR-3 = test system: OVCAR-3
ACHN = test system: ACHN
MOLT-4 = test system: MOLT-4
TK-10 = test system: TK-10
A498 = test system: A498

Measured: GI50

Cc1ccc(C2=NN(C)COC2C(F)(F)F)cc1 (stereo unspecified)
inactive: SK-MEL-2 > 100 µM | SW-620 > 100 µM | HOP-62 > 100 µM | RXF 393 > 100 µM | NCI-H23 > 100 µM | HL-60 > 100 µM | M14 > 100 µM | SK-MEL-5 > 100 µM | UO-31 > 100 µM | OVCAR-8 > 100 µM | SF-539 > 100 µM | UACC-257 > 100 µM | SNB-75 21.2 µM | OVCAR-3 > 100 µM | ACHN > 100 µM | MOLT-4 > 100 µM

COC(=O)CCCN(C)c1nc(N)n[nH]1
inactive: SW-620 > 100 µM | TK-10 > 100 µM | HOP-62 > 100 µM | RXF 393 > 100 µM | NCI-H23 > 100 µM | HL-60 > 100 µM | M14 > 100 µM | SK-MEL-5 > 100 µM | UO-31 > 100 µM | OVCAR-8 > 100 µM | SF-539 > 100 µM | UACC-257 > 100 µM | SNB-75 66.2 µM | OVCAR-3 > 100 µM | ACHN > 100 µM | MOLT-4 > 100 µM

COc1ccc(CC2(Cc3ccc(OC)cc3)CCOC2=O)cc1
inactive: SK-MEL-2 94.8 µM | SW-620 > 100 µM | TK-10 > 100 µM | HOP-62 20.8 µM | NCI-H23 > 100 µM | HL-60 > 100 µM | M14 > 100 µM | UO-31 > 100 µM | OVCAR-8 > 100 µM | A498 > 100 µM | UACC-257 > 100 µM | SNB-75 14.7 µM | OVCAR-3 > 100 µM | ACHN 94.8 µM | MOLT-4 > 100 µM

O=S(=O)(c1ccccc1)C1(C2(S(=O)(=O)c3ccccc3)CCN=N2)CCN=N1 (stereo unspecified)
inactive: SK-MEL-2 > 100 µM | SW-620 > 100 µM | TK-10 > 100 µM | RXF 393 > 100 µM | NCI-H23 > 100 µM | HL-60 > 100 µM | M14 > 100 µM | UO-31 > 100 µM | OVCAR-8 > 100 µM | SF-539 > 100 µM | UACC-257 > 100 µM | SNB-75 > 100 µM | OVCAR-3 > 100 µM | ACHN > 100 µM | MOLT-4 > 100 µM

Cc1cc(Cl)ccc1NC(=O)CCCC(=O)C1CCCC1=O (stereo unspecified)
inactive: SK-MEL-2 > 100 µM | SW-620 > 100 µM | TK-10 > 100 µM | NCI-H23 > 100 µM | HL-60 > 100 µM | M14 > 100 µM | SK-MEL-5 > 100 µM | UO-31 > 100 µM | OVCAR-8 > 100 µM | A498 > 100 µM | SF-539 > 100 µM | UACC-257 > 100 µM | OVCAR-3 > 100 µM | ACHN > 100 µM | MOLT-4 > 100 µM

O=C(/C=C/c1ccccc1Cl)c1ccc(Cl)cc1Cl
inactive: SW-620 1.74 µM | TK-10 17.7 µM | HOP-62 23.2 µM | NCI-H23 19.2 µM | HL-60 16.5 µM | M14 18.1 µM | SK-MEL-5 15.3 µM | UO-31 21.7 µM | OVCAR-8 15.7 µM | A498 18.8 µM | SF-539 23 µM | UACC-257 15.9 µM | SNB-75 18.7 µM | OVCAR-3 17.7 µM | ACHN 18.1 µM | MOLT-4 3.91 µM

CC12Oc3ccc4ccccc4c3C1c1c(ccc3ccccc13)O2 (stereo unspecified)
inactive: SK-MEL-2 > 100 µM | SW-620 > 100 µM | TK-10 > 100 µM | RXF 393 > 100 µM | NCI-H23 > 100 µM | M14 > 100 µM | SK-MEL-5 > 100 µM | UO-31 > 100 µM | OVCAR-8 > 100 µM | SF-539 78.2 µM | SNB-75 43.3 µM | OVCAR-3 > 100 µM | ACHN > 100 µM | MOLT-4 > 100 µM

Cc1cc2c(C)nn(Cc3ccccc3)c2c(C(N)=O)c1C
inactive: SK-MEL-2 > 100 µM | SW-620 > 100 µM | TK-10 > 100 µM | HOP-62 > 100 µM | NCI-H23 > 100 µM | M14 > 100 µM | SK-MEL-5 > 100 µM | UO-31 67.9 µM | OVCAR-8 > 100 µM | A498 > 100 µM | SF-539 > 100 µM | UACC-257 > 100 µM | SNB-75 21.6 µM | OVCAR-3 > 100 µM | ACHN > 100 µM | MOLT-4 62.1 µM

Clc1ncnc2c1ncn2CCCCCCCCCCCCn1cnc2c(Cl)ncnc21
inactive: SK-MEL-2 13.4 µM | SW-620 22.4 µM | TK-10 22.1 µM | HOP-62 18.6 µM | RXF 393 16.8 µM | NCI-H23 2.49 µM | HL-60 2.7 µM | M14 15.3 µM | SK-MEL-5 4.83 µM | UO-31 13.1 µM | OVCAR-8 11.1 µM | A498 12.2 µM | SF-539 14.4 µM | UACC-257 2.86 µM | OVCAR-3 11.2 µM | ACHN 14.5 µM | MOLT-4 6.78 µM

Cc1cc(C)nc(NS(=O)(=O)c2ccc(Nc3c4ccc(Cl)cc4nc4c(C(=O)Nc5ccc(S(=O)(=O)N=C(N)N)cc5)cccc34)cc2)n1
inactive: TK-10 98.6 µM | HOP-62 > 100 µM | RXF 393 29.4 µM | NCI-H23 > 100 µM | M14 > 100 µM | UO-31 > 100 µM | OVCAR-8 > 100 µM | A498 > 100 µM | SF-539 > 100 µM | UACC-257 > 100 µM | SNB-75 57.7 µM | OVCAR-3 96.6 µM | ACHN 96.6 µM | MOLT-4 29 µM

CC(C)(C)c1cc(C(OCCl)(C(F)(F)F)C(F)(F)F)c2c(c1)C(C(F)(F)F)(C(F)(F)F)OC21c2ccccc2C(=O)c2ccccc21
inactive: SK-MEL-2 > 100 µM | SW-620 > 100 µM | TK-10 > 100 µM | RXF 393 > 100 µM | NCI-H23 > 100 µM | M14 > 100 µM | SK-MEL-5 > 100 µM | UO-31 > 100 µM | OVCAR-8 > 100 µM | SF-539 > 100 µM | UACC-257 > 100 µM | SNB-75 > 100 µM | OVCAR-3 > 100 µM | ACHN > 100 µM | MOLT-4 > 100 µM

C[N+](C)(C)CC(=O)N/N=C(/Cc1nc2c3c(ccc2nc1O)C(=O)c1ccccc1C3=O)C(=O)Nc1ccc(Cl)c(Cl)c1
inactive: SK-MEL-2 91.2 µM | SW-620 35.2 µM | TK-10 39.1 µM | HOP-62 35.9 µM | RXF 393 23.2 µM | NCI-H23 44.6 µM | HL-60 8.15 µM | M14 81.1 µM | SK-MEL-5 36.6 µM | UO-31 6.84 µM | OVCAR-8 50.5 µM | A498 33.7 µM | SF-539 93.1 µM | UACC-257 > 100 µM | OVCAR-3 30.2 µM | ACHN 24 µM | MOLT-4 19.9 µM

[N-]=[N+]=N[C@H]1C[C@@H](CO)O[C@H]1n1cnc2c(N)ncnc21
inactive: SK-MEL-2 > 100 µM | SW-620 > 100 µM | TK-10 > 100 µM | HOP-62 > 100 µM | NCI-H23 > 100 µM | HL-60 > 100 µM | M14 > 100 µM | SK-MEL-5 > 100 µM | UO-31 > 100 µM | OVCAR-8 > 100 µM | SF-539 > 100 µM | UACC-257 > 100 µM | SNB-75 > 100 µM | OVCAR-3 > 100 µM | ACHN > 100 µM
